Reference: patent US20250333394A1, “Tiparp Inhibitor Compounds” (AbbVie Inc., priority 2024, published 2025)
Like-named read-outs stand apart in the source and are kept apart here.

Experiments:
TIPARP GST-(TEV) = TIPARP GST-(TEV) (Homo sapiens (Human), UniProt Q7Z3E1); assay: TR-FRET binding assay, TIPARP; conditions: for IC50: TR-FRET, Probe 1, 2 hours incubation; for PARP1/TIPARP IC50 Ratio: ratio of PARP1 GST IC50 to TIPARP GST-(TEV) IC50
Outline: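 N-terminal GST-TEV-tagged human TIPARP with protein/probe mix in 50 mM Tris-HCl pH 8.0, 5 mM MgCl2, 5 µM ZnCl2, 1 mM DTT, 0.15% BSA, 0.01% Triton X-100, plus 1 nM Tb-anti-GST antibody. Compounds at 30 µM to 0.5 nM final, 3-fold steps. TR-FRET ratio read after 2 h at ambient temperature.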

PARP1 GST = PARP1 GST (Homo sapiens (Human), UniProt P09874); assay: TR-FRET binding assay, PARP1; conditions: Probe 2, 2 hours incubation
Outline: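 Serially diluted compounds, final 30 μM down to 0.5 nM, incubated 2 h at ambient temperature with GST-tagged protein/probe mix plus 1 nM Tb-anti-GST antibody. Buffer: 50 mM Tris-HCl pH 8.0, 5 mM MgCl2, 5 μM ZnCl2, 1 mM DTT, 0.15% BSA, 0.01% Triton X-100. Binding read as TR-FRET ratio.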

NCI-H1373 cells = assay: NCI-H1373 CellTiter-Glo cell assay for TIPARP inhibition; format: cell-based, human; conditions: 6 days, 100 nM 10-Cl-BBQ in medium, read-out: NCI-H1373 CTG EC50
Outline: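 NCI-H1373 cells (1000/well) grown in RPMI 1640 with 10% FBS and 100 nM 10-Cl-BBQ, exposed to compounds from 30 μM to 0.5 nM final in 3-fold steps for 6 days at 37° C. Cell number read on day 7 by CellTiter-Glo luminescence.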

DLD-1 parent cells = assay: CellTiter-Glo DLD-1 parent cell assay; format: cell-based; conditions: 6 days, read-out: DLD-1 CTG EC50
Outline: (§1)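 DLD-1 parent (500 cells/well) and DLD-1 BRCA2 (−/−) (1200 cells/well) cells in RPMI 1640 with 10% FBS exposed to compounds at 30 μM to 0.5 nM (3-fold dilutions) for 6 days at 37° C. Viability read by CellTiter-Glo luminescence on day 7.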

DLD-1 BRCA2 (−/−) cells = assay: CellTiter-Glo DLD-1 BRCA2 (−/−) cell assay for PARP1/2 inhibition; format: cell-based; conditions: 6 days, read-out: DLD-1 BRCA2 (−/−) CTG EC50
Outline: as §1

Sequence of PARP1 GST (P09874 whole entry): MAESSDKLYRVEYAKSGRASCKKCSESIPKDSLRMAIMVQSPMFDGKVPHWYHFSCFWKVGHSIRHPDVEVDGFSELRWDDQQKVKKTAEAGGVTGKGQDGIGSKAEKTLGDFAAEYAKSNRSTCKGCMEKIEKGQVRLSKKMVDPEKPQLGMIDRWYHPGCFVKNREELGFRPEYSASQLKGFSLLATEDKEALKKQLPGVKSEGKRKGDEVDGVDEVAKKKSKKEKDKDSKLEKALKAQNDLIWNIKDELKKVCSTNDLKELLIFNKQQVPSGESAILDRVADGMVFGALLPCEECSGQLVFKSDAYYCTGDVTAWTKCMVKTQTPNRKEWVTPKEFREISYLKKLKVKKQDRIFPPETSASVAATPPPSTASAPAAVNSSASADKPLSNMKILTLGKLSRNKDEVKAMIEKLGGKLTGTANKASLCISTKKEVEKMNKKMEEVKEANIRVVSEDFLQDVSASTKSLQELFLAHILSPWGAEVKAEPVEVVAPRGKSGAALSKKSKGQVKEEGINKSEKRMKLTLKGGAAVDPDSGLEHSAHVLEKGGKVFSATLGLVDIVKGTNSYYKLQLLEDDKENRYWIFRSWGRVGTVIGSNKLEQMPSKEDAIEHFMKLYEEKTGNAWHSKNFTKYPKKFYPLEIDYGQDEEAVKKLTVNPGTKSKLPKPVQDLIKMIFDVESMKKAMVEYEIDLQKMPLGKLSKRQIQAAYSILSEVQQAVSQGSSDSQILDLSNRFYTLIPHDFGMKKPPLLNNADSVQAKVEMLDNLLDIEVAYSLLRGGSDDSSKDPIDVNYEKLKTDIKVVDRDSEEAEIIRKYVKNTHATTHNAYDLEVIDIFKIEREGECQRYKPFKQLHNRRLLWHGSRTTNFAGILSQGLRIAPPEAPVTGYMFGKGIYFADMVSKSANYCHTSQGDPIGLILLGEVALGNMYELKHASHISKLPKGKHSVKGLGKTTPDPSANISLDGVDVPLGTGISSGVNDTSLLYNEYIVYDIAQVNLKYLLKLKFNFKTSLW
Sequence of TIPARP GST-(TEV) (Q7Z3E1 441-657): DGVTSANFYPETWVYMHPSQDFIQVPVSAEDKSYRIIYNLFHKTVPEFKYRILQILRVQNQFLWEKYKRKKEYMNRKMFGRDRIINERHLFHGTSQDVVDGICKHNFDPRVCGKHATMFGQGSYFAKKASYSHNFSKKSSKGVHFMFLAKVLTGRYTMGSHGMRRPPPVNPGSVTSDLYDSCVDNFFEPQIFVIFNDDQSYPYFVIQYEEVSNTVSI

Row | SMILES | IC50 (TIPARP GST-(TEV)) [µM] | PARP1/TIPARP IC50 Ratio (TIPARP GST-(TEV)) | IC50 (PARP1 GST) [µM] | EC50 (NCI-H1373 cells; Homo sapiens, NCI-H1373, 144 h) [µM] | EC50 (DLD-1 parent cells; Homo sapiens, 144 h) [µM] | EC50 (DLD-1 BRCA2 (−/−) cells; Homo sapiens, 144 h) [µM] | EC50 (NCI-H1373 cells) [µM] | EC50 (DLD-1 parent cells) [µM] | EC50 (DLD-1 BRCA2 (−/−) cells) [µM]
1 | C[C@H]1CN(C(=O)[C@H]2C[C@@H](Cc3c[nH]c(=O)c(C(F)(F)F)c3)C2)CCN1c1ncc(C(F)(F)F)cn1 [Example 16, 5-{[(1R,3s)-3-{(3S)-3-methyl-4-[5-(trifluoromethyl)pyrimidin-2-yl]piperazine-1-carbonyl}cyclobutyl]methyl}-3-(trifluoromethyl)pyridin-2(1H)-one] | 0.00334 | 347 | 1.16 | 0.0191 | 15.2 | 0.997 | – | – | –
2 | C[C@H]1CN(c2ncc(C(F)(F)F)cn2)CCN1C(=O)[C@H]1C[C@@H](Cc2c[nH]c(=O)c(C(F)(F)F)c2)C1 [Example 17, 5-{[(1R,3s)-3-{(2S)-2-methyl-4-[5-(trifluoromethyl)pyrimidin-2-yl]piperazine-1-carbonyl}cyclobutyl]methyl}-3-(trifluoromethyl)pyridin-2(1H)-one] | 0.005 | 41.2 | 0.206 | 0.0341 | 9.75 | 0.217 | – | – | –
3 | C[C@@H]1CN(c2ncc(C(C)(C)O)cn2)CCN1C(=O)[C@H]1C[C@@H](c2c[nH]c(=O)c(C(F)(F)F)c2)C1 [Example 9, 5-[(1S,3s)-3-{(2R)-4-[5-(2-hydroxypropan-2-yl)pyrimidin-2-yl]-2-methylpiperazine-1-carbonyl}cyclobutyl]-3-(trifluoromethyl)pyridin-2(1H)-one] | 0.00432 | 1010 | 4.36 | 0.0677 | > 30 | > 30 | – | – | –
4 | C[C@@H]1CN(c2ncc(C(F)(F)F)cn2)CCN1C(=O)[C@H]1C[C@@H](Cc2c[nH]c(=O)c(C(F)(F)F)c2)C1 [Example 12, 5-{[(1S,3s)-3-{(2R)-2-methyl-4-[5-(trifluoromethyl)pyrimidin-2-yl]piperazine-1-carbonyl}cyclobutyl]methyl}-3-(trifluoromethyl)pyridin-2(1H)-one] | 0.00316 | 1160 | 3.65 | 0.0292 | 11.1 | 5.48 | – | – | –
5 | C[C@H]1CN(C(=O)[C@H]2C[C@@H](c3c[nH]c(=O)c(C(F)(F)F)c3)C2)CCN1c1ncc(C(C)(C)O)cn1 [Example 10, 5-[(1R,3s)-3-{(3S)-4-[5-(2-hydroxypropan-2-yl)pyrimidin-2-yl]-3-methylpiperazine-1-carbonyl}cyclobutyl]-3-(trifluoromethyl)pyridin-2(1H)-one] | 0.0101 | 305 | 3.08 | 0.284 | > 30 | > 30 | – | – | –
6 | C[C@@H]1CN(C(=O)[C@H]2C[C@@H](Cc3c[nH]c(=O)c(C(F)(F)F)c3)C2)CCN1c1ncc(C(C)(C)O)cn1 [Example 18, 5-{[(1S,3s)-3-{(3R)-4-[5-(2-hydroxypropan-2-yl)pyrimidin-2-yl]-3-methylpiperazine-1-carbonyl}cyclobutyl]methyl}-3-(trifluoromethyl)pyridin-2(1H)-one] | 0.00586 | 149 | 0.871 | 0.0667 | 12 | 1.05 | – | – | –
7 | C[C@@H]1CN(c2ncc(C(F)(F)F)cn2)CCN1C(=O)[C@H]1C[C@H](c2c[nH]c(=O)c(C(F)(F)F)c2)C1 [Example 25, 5-[(1R,3r)-3-{(2R)-2-methyl-4-[5-(trifluoromethyl)pyrimidin-2-yl]piperazine-1-carbonyl}cyclobutyl]-3-(trifluoromethyl)pyridin-2(1H)-one] | 2 | 1.02 | 2.03 | – | – | – | 10.2 | > 30 | > 30
